Reference: ChEMBL document CHEMBL6134788, “Development of naphthalimide hydrazide derivatives as potent antibacterial agents against carbapenem-resistant A. baumannii” (RSC Med Chem, 2024)
Converted amounts (≈) assume the structure as drawn.

Assays:
Staphylococcus aureus = experiment: Antibacterial activity against Staphylococcus aureus ATCC 29213 assessed as inhibition of bacterial growth incubated for 16 to 18 hrs by CLSI protocol based method; assay type: functional; conditions: time 16-18 hrs, read-out: MIC100
Klebsiella pneumoniae = experiment: Antibacterial activity against Klebsiella pneumoniae BAA 1705 assessed as inhibition of bacterial growth incubated for 16 to 18 hrs by CLSI protocol based method; assay type: functional; conditions: time 16-18 hrs, read-out: MIC100
Pseudomonas aeruginosa = experiment: Antibacterial activity against Pseudomonas aeruginosa ATCC 27853 assessed as inhibition of bacterial growth incubated for 16 to 18 hrs by CLSI protocol based method; assay type: functional; conditions: time 16-18 hrs, read-out: MIC100
[1] = Cytotoxicity against African green monkey Vero cells assessed as reduction in cell viability incubated for 72 hrs by MTT assay; assay type: toxicity, cell-based; conditions: chlorocebus sabaeus
[2] = Selectivity index, ratio of CC50 for cytotoxicity against African green monkey VERO cells to MIC for antibacterial activity against carbapenem-resistant Acinetobacter baumannii BAA 1605 assessed as inhibition of bacterial growth; assay type: toxicity, cell-based; conditions: read-out: Selectivity Index
Acinetobacter baumannii [3] = experiment: Antibacterial activity against multi-drug resistant Acinetobacter baumannii H72721 assessed as inhibition of bacterial growth incubated for 16 to 18 hrs by CLSI protocol based method; assay type: functional; conditions: time 16-18 hrs, read-out: MIC100
Acinetobacter baumannii [4] = experiment: Antibacterial activity against multi-drug resistant Acinetobacter baumannii clinical isolate 1 assessed as inhibition of bacterial growth incubated for 16 to 18 hrs by CLSI protocol based method; assay type: functional; conditions: time 16-18 hrs, read-out: MIC100
Acinetobacter baumannii [5] = experiment: Antibacterial activity against multi-drug resistant Acinetobacter baumannii clinical isolate 4 assessed as inhibition of bacterial growth incubated for 16 to 18 hrs by CLSI protocol based method; assay type: functional; conditions: time 16-18 hrs, read-out: MIC100
Acinetobacter baumannii [6] = experiment: Antibacterial activity against multi-drug resistant Acinetobacter baumannii clinical isolate 5 assessed as inhibition of bacterial growth incubated for 16 to 18 hrs by CLSI protocol based method; assay type: functional; conditions: time 16-18 hrs, read-out: MIC100
Acinetobacter baumannii [7] = experiment: Antibacterial activity against multi-drug resistant Acinetobacter baumannii clinical isolate 6 assessed as inhibition of bacterial growth incubated for 16 to 18 hrs by CLSI protocol based method; assay type: functional; conditions: time 16-18 hrs, read-out: MIC100
Acinetobacter baumannii [8] = experiment: Antibacterial activity against multi-drug resistant Acinetobacter baumannii clinical isolate 7 assessed as inhibition of bacterial growth incubated for 16 to 18 hrs by CLSI protocol based method; assay type: functional; conditions: time 16-18 hrs, read-out: MIC100
Acinetobacter baumannii [9] = experiment: Antibacterial activity against multi-drug resistant Acinetobacter baumannii clinical isolate 8 assessed as inhibition of bacterial growth incubated for 16 to 18 hrs by CLSI protocol based method; assay type: functional; conditions: time 16-18 hrs, read-out: MIC100
Acinetobacter baumannii [10] = experiment: Antibacterial activity against multi-drug resistant Acinetobacter baumannii clinical isolate 9 assessed as inhibition of bacterial growth incubated for 16 to 18 hrs by CLSI protocol based method; assay type: functional; conditions: time 16-18 hrs, read-out: MIC100
Acinetobacter baumannii [11] = experiment: Antibacterial activity against multi-drug resistant Acinetobacter baumannii clinical isolate 10 assessed as inhibition of bacterial growth incubated for 16 to 18 hrs by CLSI protocol based method; assay type: functional; conditions: time 16-18 hrs, read-out: MIC100
Acinetobacter baumannii [12] = experiment: Antibacterial activity against multi-drug resistant Acinetobacter baumannii clinical isolate 11 assessed as inhibition of bacterial growth incubated for 16 to 18 hrs by CLSI protocol based method; assay type: functional; conditions: time 16-18 hrs, read-out: MIC100
Acinetobacter baumannii [13] = experiment: Antibacterial activity against multi-drug resistant Acinetobacter baumannii clinical isolate 12 assessed as inhibition of bacterial growth incubated for 16 to 18 hrs by CLSI protocol based method; assay type: functional; conditions: time 16-18 hrs, read-out: MIC100
Acinetobacter baumannii [14] = experiment: Antibacterial activity against multi-drug resistant Acinetobacter baumannii 5-032 assessed as inhibition of bacterial growth incubated for 16 to 18 hrs by CLSI protocol based method; assay type: functional; conditions: time 16-18 hrs, read-out: MIC100
Acinetobacter baumannii [15] = experiment: Antibacterial activity against multi-drug resistant Acinetobacter baumannii 5-143 assessed as inhibition of bacterial growth incubated for 16 to 18 hrs by CLSI protocol based method; assay type: functional; conditions: time 16-18 hrs, read-out: MIC100
Acinetobacter baumannii [16] = experiment: Antibacterial activity against multi-drug resistant Acinetobacter baumannii BC-5 assessed as inhibition of bacterial growth incubated for 16 to 18 hrs by CLSI protocol based method; assay type: functional; conditions: time 16-18 hrs, read-out: MIC100
Acinetobacter baumannii [17] = experiment: Antibacterial activity against multi-drug resistant Acinetobacter baumannii Naval-18 assessed as inhibition of bacterial growth incubated for 16 to 18 hrs by CLSI protocol based method; assay type: functional; conditions: time 16-18 hrs, read-out: MIC100
Acinetobacter baumannii [18] = experiment: Antibacterial activity against multi-drug resistant Acinetobacter baumannii Naval-81 assessed as inhibition of bacterial growth incubated for 16 to 18 hrs by CLSI protocol based method; assay type: functional; conditions: time 16-18 hrs, read-out: MIC100
Acinetobacter baumannii [19] = experiment: Antibacterial activity against multi-drug resistant Acinetobacter baumannii WL-136 assessed as inhibition of bacterial growth incubated for 16 to 18 hrs by CLSI protocol based method; assay type: functional; conditions: time 16-18 hrs, read-out: MIC100
Acinetobacter baumannii [20] = experiment: Antibacterial activity against multi-drug resistant Acinetobacter baumannii WL-487 assessed as inhibition of bacterial growth incubated for 16 to 18 hrs by CLSI protocol based method; assay type: functional; conditions: time 16-18 hrs, read-out: MIC100
Acinetobacter baumannii [21] = experiment: Antibacterial activity against Acinetobacter baumannii ATCC 17978 assessed as inhibition of bacterial growth incubated for 16 to 18 hrs by CLSI protocol based method; assay type: functional; conditions: time 16-18 hrs, read-out: MIC100
Acinetobacter baumannii [22] = experiment: Antibacterial activity against carbapenem-resistant Acinetobacter baumannii BAA 1605 assessed as inhibition of bacterial growth incubated 24 hrs in presence of amikacin by checkerboard method; assay type: functional
Acinetobacter baumannii [23] = experiment: Antibacterial activity against carbapenem-resistant Acinetobacter baumannii BAA 1605 assessed as inhibition of bacterial growth incubated 24 hrs in presence of polymyxin B by checkerboard method; assay type: functional
Acinetobacter baumannii [24] = experiment: Antibacterial activity against carbapenem-resistant Acinetobacter baumannii BAA 1605 assessed as inhibition of bacterial growth incubated 24 hrs in presence of rifampicin by checkerboard method; assay type: functional
Acinetobacter baumannii [25] = experiment: Synergistic antibacterial activity against carbapenem-resistant Acinetobacter baumannii BAA 1605 assessed as inhibition of bacterial growth incubated 24 hrs in presence of tobramycin by checkerboard method; assay type: functional
Acinetobacter baumannii [26] = experiment: Antibacterial activity against carbapenem-resistant Acinetobacter baumannii BAA 1605 assessed as inhibition of bacterial growth by measuring amikacin MIC incubated 24 hrs by checkerboard method; assay type: functional
Acinetobacter baumannii [27] = experiment: Antibacterial activity against carbapenem-resistant Acinetobacter baumannii BAA 1605 assessed as inhibition of bacterial growth by measuring rifampicin MIC incubated 24 hrs by checkerboard method; assay type: functional
Acinetobacter baumannii [28] = experiment: Antibacterial activity against carbapenem-resistant Acinetobacter baumannii BAA 1605 assessed as inhibition of bacterial growth by measuring fractional inhibitory concentration incubated 24 hrs in presence of levofloxacin by checkerboard method; assay type: functional
Acinetobacter baumannii [29] = experiment: Antibacterial activity against carbapenem-resistant Acinetobacter baumannii BAA 1605 assessed as inhibition of bacterial growth by measuring fractional inhibitory concentration incubated 24 hrs in presence of minocycline by checkerboard method; assay type: functional
Acinetobacter baumannii [30] = experiment: Antibacterial activity against carbapenem-resistant Acinetobacter baumannii BAA 1605 assessed as inhibition of bacterial growth by measuring fractional inhibitory concentration incubated 24 hrs in presence of rifampicin by checkerboard method; assay type: functional
Acinetobacter baumannii [31] = experiment: Synergistic antibacterial activity against carbapenem-resistant Acinetobacter baumannii BAA 1605 assessed as inhibition of bacterial growth by measuring fractional inhibitory concentration incubated 24 hrs in presence of tobramycin by checkerboard method; assay type: functional
Acinetobacter baumannii [32] = experiment: Antibacterial activity against carbapenem-resistant Acinetobacter baumannii BAA 1605 assessed as amikacin MIC by measuring fractional inhibitory concentration incubated 24 hrs by checkerboard method relative to amikacin alone; assay type: functional
Acinetobacter baumannii [33] = experiment: Antibacterial activity against carbapenem-resistant Acinetobacter baumannii BAA 1605 assessed as levofloxacin MIC by measuring fractional inhibitory concentration incubated 24 hrs by checkerboard method relative to levofloxacin alone; assay type: functional
Acinetobacter baumannii [34] = experiment: Antibacterial activity against carbapenem-resistant Acinetobacter baumannii BAA 1605 assessed as rifampicin MIC by measuring fractional inhibitory concentration incubated 24 hrs by checkerboard method relative to rifampicin alone; assay type: functional

`O=C(CCN1C(=O)c2cccc3cccc(c23)C1=O)NNc1ccc(Br)cc1` showed an MIC (Staphylococcus aureus) greater than 64 µg/mL, an MIC (Klebsiella pneumoniae) greater than 64 µg/mL and an MIC (Pseudomonas aeruginosa) greater than 64 µg/mL. For the same compound, the CC50 at 72 h [1] was greater than 100 µg/mL, the selectivity ratio [2] was greater than 200 and the MIC (Acinetobacter baumannii [3]) was 0.5 µg/mL (≈ 1.14 µM). For the same compound, the MIC (Acinetobacter baumannii [4]) was 0.25 µg/mL (≈ 0.57 µM), the MIC (Acinetobacter baumannii [5]) was 0.5 µg/mL (≈ 1.14 µM) and the MIC (Acinetobacter baumannii [6]) was 1 µg/mL (≈ 2.28 µM). The MIC (Acinetobacter baumannii [7]) was 0.5 µg/mL (≈ 1.14 µM), the MIC (Acinetobacter baumannii [8]) was 0.5 µg/mL (≈ 1.14 µM) and the MIC (Acinetobacter baumannii [9]) was 0.5 µg/mL (≈ 1.14 µM). It also gave an MIC (Acinetobacter baumannii [10]) of 0.5 µg/mL (≈ 1.14 µM), an MIC (Acinetobacter baumannii [11]) of 0.5 µg/mL (≈ 1.14 µM) and an MIC (Acinetobacter baumannii [12]) of 4 µg/mL (≈ 9.13 µM). The MIC (Acinetobacter baumannii [13]) was 0.5 µg/mL (≈ 1.14 µM), the MIC (Acinetobacter baumannii [14]) was 0.5 µg/mL (≈ 1.14 µM) and the MIC (Acinetobacter baumannii [15]) was 0.25 µg/mL (≈ 0.57 µM). For the same compound, the MIC (Acinetobacter baumannii [16]) was 0.5 µg/mL (≈ 1.14 µM), the MIC (Acinetobacter baumannii [17]) was 0.5 µg/mL (≈ 1.14 µM) and the MIC (Acinetobacter baumannii [18]) was 0.5 µg/mL (≈ 1.14 µM). For the same compound, the MIC (Acinetobacter baumannii [19]) was 0.5 µg/mL (≈ 1.14 µM), the MIC (Acinetobacter baumannii [20]) was 0.5 µg/mL (≈ 1.14 µM) and the MIC (Acinetobacter baumannii [21]) was 0.5 µg/mL (≈ 1.14 µM). For the same compound, the MIC (Acinetobacter baumannii [22]) was 0.25 µg/mL, the MIC (Acinetobacter baumannii [23]) was 0.25 µg/mL and the MIC (Acinetobacter baumannii [24]) was 0.5 µg/mL. It also gave an MIC (Acinetobacter baumannii [25]) of 0.25 µg/mL, an MIC (Acinetobacter baumannii [26]) of 2 µg/mL and an MIC (Acinetobacter baumannii [27]) of 2 µg/mL. For the same compound, the FIC (Acinetobacter baumannii [28]) was 1, the FIC (Acinetobacter baumannii [29]) was 1 and the FIC (Acinetobacter baumannii [30]) was 0.5. The FIC (Acinetobacter baumannii [31]) was 0.25, the FIC (Acinetobacter baumannii [32]) was 0.5 and the FIC (Acinetobacter baumannii [33]) was 1. The FIC (Acinetobacter baumannii [34]) was 0.5.
